Laboratory results from patent US9980979B2, “Compounds and methods for enhancing erythropoiesis” (NATIONAL YANG-MING UNIVERSITY, priority 2008, dated 2018).

Key:
[1] = tested on: cisplatin-induced acute renal failure animal model; assay: cisplatin-induced acute renal failure animal model: red blood cell count and blood urea nitrogen; type: in vivo, C57BL/6JNarl mice
Protocol: The effects of Compound A treatment on cisplatin-induced acute renal failure animal model were investigated. C57BL/6JNarl mice (8-week-old) were purchased from the National Laboratory Animal Center (NLAC, Taiwan). Cisplatin (Sigma-Aldrich) was dissolved in normal saline (0.9% (w/v) sodium chloride, Sigma-Aldrich) at a concentration of 1 mg/ml, and injected into mice intraperitoneally (i.p.) according to the following schedule: day 1, 7 mg/kg; day 5, 6 mg/kg; and day 9, 6 mg/kg. For cisplatin-untreated normal mice group, normal saline injections of corresponding volumes were given i.p. in parallel. At day 13, serum samples were collected and blood urea nitrogen (BUN) contents were assayed. Cisplatin-injected mice with BUN levels more than 100 mg/dl and the cisplatin-untreated normal mice were further divided into 5 groups, 6 mice per group, for feeding with Compound A for 2 weeks: (1) Normal group: Mice were injected with normal saline and followed by feeding with a standard diet; (2) Control group: Mice were injected with cisplatin and followed by feeding with a standard diet; (3) Pomu 10 mg/kg/day group: Mice were injected with cisplatin and followed by feeding with Compound A at the dose of 10 mg/kg/day; (4) Pomu 30 mg/kg/day group: Mice were injected with cisplatin and followed by Compound A at the dose of 30 mg/kg/day; (5) Pomu 90 mg/kg/day group: Mice were injected with cisplatin and followed by Compound A treatment at the dose of 90 mg/kg/day. Blood samples were collected from the retro-orbital sinus of mice at day 0, 5, 10, 13, 18, 23 and 28. Red blood cell (RBC) concentrations were determined by complete blood cell count using Sysmex® Kx-21 hematology analyzer. Blood urea nitrogen (BUN) levels were determined by urease GLDH method (Urea FS, DiaSys). Results were expressed as mean±S.E. (n=5˜6). Statistical significance was evaluated by Student's t test (##P<0.01 versus normal group and **P<0.01 versus control group). […] The horizontal arrow in FIGS. 7 and 8 represents Compound A treatment (mg/Kg/day). […] The results were in agreement with the ability of the Compound A in enhancing erythropoiesis.

[2] = tested on: erythroid progenitor cells (bone marrow cells); assay: BFU-E assay on bone marrow cells isolated from treated mice of the cisplatin-induced acute renal failure model; type: in vivo, C57BL/6JNarl mice; settings: 10~90 mg/kg/day; cells isolated day 28, cultured 12 days; versus control group; FIG. 11
Protocol: The effects of Compound A treatment on cisplatin-induced acute renal failure animal model were investigated. C57BL/6JNarl mice (8-week-old) were purchased from the National Laboratory Animal Center (NLAC, Taiwan). Cisplatin (Sigma-Aldrich) was dissolved in normal saline (0.9% (w/v) sodium chloride, Sigma-Aldrich) at a concentration of 1 mg/ml, and injected into mice intraperitoneally (i.p.) according to the following schedule: day 1, 7 mg/kg; day 5, 6 mg/kg; and day 9, 6 mg/kg. For cisplatin-untreated normal mice group, normal saline injections of corresponding volumes were given i.p. in parallel. At day 13, serum samples were collected and blood urea nitrogen (BUN) contents were assayed. […]
At the end of the experiments described in EXAMPLE 6 (i.e., day 28), mice were sacrificed, kidney and liver tissues were removed, and bone marrow cells were isolated. […] The reverse-transcribed cDNA samples were analyzed by PCR using ABI GeneAmp™ system 2700 (Applied Biosystems) and the SYBR Green Master Mix kit (Applied Biosystems) using primers targeting toward mouse glyceraldehyde 3-phosphate dehydrogenase (GAPDH) (SEQ ID NOs: 5 and 6), erythropoietin (Epo) (SEQ ID NOs: 3 and 4) and hepatocyte growth factor (HGF) (SEQ ID NOs: 7 and 8) (Table 1). Results were expressed as relative index±S.E. (n=5˜6). […]

[3] = comparison with 3,4′,5-trihydroxy-trans-stilbene (data not shown)

For `OC[C@H]1O[C@@H](Oc2c(O)cc(O)cc2/C=C/c2ccc(O)cc2)[C@H](O)[C@@H](O)[C@@H]1O` [Compound A, 2,3,5,4′-tetrahydroxystilbene 2-O-β-D-glucopyranoside], the “number of red blood cells (RBCs)” value ([1]; 30~90 mg/kg/day in feed for 2 weeks, time course, FIG. 5) was “increased the number of red blood cells”, the “serum BUN levels” value ([1]; 30~90 mg/kg/day in feed for 2 weeks, time course, FIG. 6) was “decreased serum BUN levels” and the “number of RBCs at day 23” value ([1]; 30~90 mg/kg/day, day 23, versus control group, FIG. 7) was “significantly increased the number of RBCs”. For the same compound, the “serum BUN levels at day 23” value ([1]; 30~90 mg/kg/day, day 23, versus control group, FIG. 8) was “decreasing serum BUN levels”, the “number of BFU-E colonies of bone marrow cells (relative index)” value [2] was “significantly increased the number of BFU-E colonies” and the “enhancing renal functions and improving anemia, compared with 3,4′,5-trihydroxy-trans-stilbene” value ([3]; data not shown) was “superior to 3,4′,5-trihydroxy-trans-stilbene”. For the same compound, the “enhancing erythropoiesis and kidney functions, compared with 3,4′,5-trihydroxy-trans-stilbene” value ([3]; no data shown) was “superior to 3,4′,5-trihydroxy-trans-stilbene”.
